{"source": "patent US20130195770A1", "about": "“COMPOSITION AND METHOD FOR REDUCING ATHEROSCLEROTIC LESIONS” (DuPont Nutrition Bioscience ApS, priority 2010, published 2013)", "key": {"[1]": {"tested_on": "wild type male mice (C57BL/6J)", "experiment": "Intestinal absorption of cholesteryl oleate in mice, plasma dual isotope ratio method", "assay_type": "in vivo", "conditions": "oral bolus [14C]-cholesteryl oleate in skimmed milk, plasma after three days; p<0.001; FIG. 2B", "quoted_text": "The net intestinal absorption of cholesterol and cholesteryl esters was measured using the plasma dual isotope ratio method described in Wang et al (Journal of Lipid Research, [2003] 44, 1042-1059). This method is based on the simultaneous intragastric (IG) and intravenous (IV) administration of [^3H] -cholesterol and [^14C] -cholesterol, respectively, and measurement of plasma cholesterol isotope ratios at a set point in time. By definition, the IV [^14C]-cholesterol dose corresponds to “100% absorption”, whereas the [^3H]-cholesterol found in the blood reflects the absorption by the gastrointestinal tract. The method allows correction for post-absorptive cholesterol metabolism and for colonic handling of the malabsorbed labelled cholesterol by defining Fifteen wild type male mice (C57BL/6J), age of 5 weeks were randomly assigned into 3 groups. An amount of 2.5 μCi of [^3H]-cholesterol was dissolved in 100 μl of phosphate buffered saline (PBS) and injected into the tail vein of non fasted and not-anesthetized animals. The animal were then given an oral bolus (IG) dose of either [^14C]-cholesterol, [^14C]-cholesterol+unlabeled cholesteryl oleate (molar ratio 1:1) or [^14C]-cholesteryl oleate dissolved in skimmed milk. […] The percent of cholesterol absorption in plasma was calculated using (1)."}, "[2]": {"tested_on": "CaCo-2 cells", "experiment": "Uptake of micellar cholesterol by CaCo-2 cells with or without unlabeled cholesteryl oleate", "assay_type": "cell-based, Human", "conditions": "CaCo-2 monolayers, 45 min at 37° C., [1,2-3H] cholesterol micelles with or without unlabeled cholesteryl oleate; p<0.001; FIG. 1A", "description": "(§1) Human colon adenocarcinoma (Caco-2) cells were kindly provided by J T Rasmussen (Department of Molecular Biology Aarhus University C. F. M0llers Alle 3DK-8000 Aarhus CDenmark). Cells were routinely maintained in NUNCLON flasks in Dulbecco's […] (DMEM) supplemented with 4.5g/1 glucose. 10% heat-inactivated fetal bovine serum (FBS), 1% nonessential amino acid (NEAA), and 1% antibiotics (complete medium), as previously described (Hidalgo I J. Raub T J. Borchardt R T, Gastroenterology, (1989) ar;96(3):736-49). Once the flasks reached 80% confiuency, the cells were dispersed and seeded into 24-well plates at density 10^5 cells/well in DMEM supplemented with 10% FBS and 1% NEAA. […]\n(§2) Micelles were prepared according to the method described by Kirana (Kirana C. Rogers P F, Bennett L E, Abevwardena M Y, Patten G S, J Agric Food Chem. (2005) Jun. 1; 53(1 1):4623-7) with slight modifications. […] The particle size of micelles was determined by dynamic light scattering (DLS) with use of the Malvern Zetasizer Nano series machine using latex 60 nm Nanosphere Size Standard.\nMonolayers were incubated at 37° C. for 45 min in micellar solutions containing [1,2-^3H] cholesterol with or without unlabeled cholesteryl oleate. […] The cells were analyzed as described above. […]"}, "[3]": {"tested_on": "Transgenic mice", "experiment": "Aorta surface covered by atherosclerotic lesions, en face ORO staining", "assay_type": "in vivo", "conditions": "28 weeks", "description": "The surface of aorta covered with atherosclerotic lesions was quantified as described by Palinski et al. (1994) and Zampolli et al. (2006). Non-fasted animals were anesthetized with pentobarbital injected intraperitoneally. Next, maximum volume of blood was collected from the heart by direct cardiac puncture of the right ventricle. Blood was kept for further analyses as described above. The heart and arterial tree were then flushed with a heparin-containing cardioplegic solution via a cannula inserted into the left ventricle, followed by perfusion with formalin for 5 minutes. The arterial tree was exposed, branching arteries were removed and entire aorta was dissected from the aortic arch down to the iliac bifurcation. Using a stereomicroscope, aortas were cleaned from periadventitial tissue; remaining branches were cut off and opened longitudinally by incision following the inner curvature of the aortic arch and the ventral side of the aorta. Additional incisions followed the outer curvature of the arch to the subclavian artery. An Oil Red 0 (ORO) staining solution was prepared by diluting the ORO stock solution (5 mg/ml in 2-propanol; Sigma Aldrich) with deionized water (6:4). Dissected aortas were stained for 30 minutes with ORO, followed by rinsing with 2-propanol and deionized water. Stained aortas were then laid flat on the microscope slide with endothelial side facing upwards. The tissues were mounted with aqueous mounting agent (Aquatex®, Merck Chemicals, Darmstadt, Germany) and covered with glass slide cover slip.\nDigital images of the slides were obtained through the 48-bit color scanner (Canoscan 9950F, Canon) with 1200 DPI resolution. The images were captured in Photoshop CS3 Extended software and converted to gray scale. After further processing, including sharpness, contrast and brightness adjustments, and the image of aorta was printed out in two copies. […] Images of a hand-drawn aorta outlines and regions (patches) matching atherosclerotic lesions were then scanned and re-imported into Adobe Photoshop and the images were then evaluated obtain the percent of aorta covered with atherosclerotic lesions. Briefly, in the digitized image of entire aorta and the image of the patches corresponding to lesions, red outlined areas were converted to black and the blackness values for all pixels in the image were summed and counted.\nTransgenic mice were randomized into 5 dietary regiments: (1) Normal chow (NC), (2) NC+0.2% cholesterol oleate (CLE), (3) Western type diet (WD) containing 0.2% cholesterol, (4) WD containing 0.2% cholesterol and 0.2% CLE, (5) WD containing 0.1% cholesterol and 0.1% CLE. The extent of the lesions was quantified as percent area positive to lipid staining by ORO in the entire aorta after 28 weeks of experimental treatments."}, "[4]": {"tested_on": "wild type male mice (C57BL/6J)", "experiment": "Intestinal absorption of cholesterol in mice, plasma dual isotope ratio method, with added cholesteryl oleate", "assay_type": "in vivo", "conditions": "oral bolus [14C]-cholesterol + unlabeled cholesteryl oleate (molar ratio 1:1) in skimmed milk, plasma after three days; p<0.05; FIG. 2A", "procedure": "The net intestinal absorption of cholesterol and cholesteryl esters was measured using the plasma dual isotope ratio method described in Wang et al (Journal of Lipid Research, [2003] 44, 1042-1059). This method is based on the simultaneous intragastric (IG) and intravenous (IV) administration of […], and measurement of plasma cholesterol isotope ratios at a set point in time. By definition, the […] corresponds to “100% absorption”, whereas the [^3H]-cholesterol found in the blood reflects the absorption by the gastrointestinal tract. The method allows correction for post-absorptive cholesterol metabolism and for colonic handling of the malabsorbed labelled cholesterol by […] Fifteen wild type male mice (C57BL/6J), age of 5 weeks were randomly assigned into 3 groups. An amount of 2.5 μCi of [^3H]-cholesterol was dissolved in 100 μl of phosphate buffered saline (PBS) and injected into the tail vein of non fasted and not-anesthetized animals. The animal were then given an oral bolus (IG) dose of either [^14C]-cholesterol, [^14C]-cholesterol+unlabeled cholesteryl oleate (molar ratio 1:1) or [^14C]-cholesteryl oleate dissolved in skimmed milk. […] The percent of cholesterol absorption in plasma was calculated using (1)."}, "[5]": {"tested_on": "CaCo-2 cells", "experiment": "Uptake of micellar cholesteryl oleate by CaCo-2 cells", "assay_type": "in vitro ADME, Human", "conditions": "micelles containing [1,2-3H] cholesteryl oleate vs labeled cholesterol, FIG. 1B", "description": "as §1, §2\nDifferentiated Caco-2 cells were incubated at 37° C. for 1, 3 and 5 hours with micellar solutions containing ^3H-labelled cholesteryl oleate according to the method described above. […] For quantitative analysis ^14C-cholesterol was used as an external standard to correct for the extraction efficiency. […]"}}, "data": [{"compound": "CCCCCCCC/C=C\\CCCCCCCC(=O)O[C@H]1CC[C@@]2(C)C(=CC[C@H]3[C@@H]4CC[C@H]([C@H](C)CCCC(C)C)[C@@]4(C)CC[C@@H]32)C1", "note": "[cholesteryl oleate]", "values": [{"measurement": "reduction in cholesterol uptake compared to mice treated with [14C]-cholesterol", "setting": "[1]", "result": 50, "unit": "%"}, {"measurement": "more cholesterol accumulated by cells incubated with cholesterol micelles alone compared to micelles containing both cholesterol and cholesteryl oleate", "setting": "[2]", "result": 30, "unit": "%"}, {"measurement": "effect on atherosclerotic lesions in Western type diet", "setting": "[3]; WD vs WD+0.2% CLE and WD+0.1% CLE, FIGS. 3 and 4", "result": "lowered atherosclerotic lesions"}, {"measurement": "rate of atherosclerosis, WD+0.2% CLE compared with WD+0.1% CLE", "setting": "[3]; mice fed WD+0.2% CLE", "result": "higher rates of atherosclerosis than mice fed with WD+0.1% CLE"}, {"measurement": "total plaque area (percent area positive to ORO in the entire aorta)", "setting": "[3]; normal chow (NC)+0.2% CLE", "result": "1.2±0.9", "unit": "%"}, {"measurement": "difference in plaque formation between NC and NC+0.2% CLE", "setting": "[3]; normal chow", "result": "no difference between those two treatments"}, {"measurement": "reduction in cholesterol adsorption compared to [14C]-cholesterol treated mice", "setting": "[4]", "result": 12, "unit": "%"}, {"measurement": "fold less labeled sterol in cells incubated with cholesteryl oleate micelles compared to cholesterol micelles", "setting": "[5]", "result": "approximately 2 fold"}]}]}
